Results on 14 compounds are retold here after US10695347B2, “Pyrimidine derivative and use thereof” (Hubei Bio-Pharmaceutical Industrial Technological Institute …, priority 2015, dated 2020).

One may read the IC50 as the concentration at which inhibition is half-maximal.

The subject of one test is Karpas299 cells. Kind of test: Suppression of Karpas299 cell proliferation (CellTiter-Glo). The class given is cell-based. To be noted: 3 days incubation, read-out: Inhibition activity on Karpas299 cells IC50. How it is done: (§1) As the amount of ATP can indicate the number of living cells directly, the living cells in culture are able to be quantified by determining the ATP level. In our experiment, we use a living-cell testing kit to quantify the living cells, which utilizes UltraGlow luciferase to generate a stable glow signal in the presence of ATP which is produced by metabolism of living cells, such as respiration. Specifically, a reagent CellTiter-Glo™ was added into cell culture media, and then the luminescent intensity was determined to measure proliferation of cells, as the luminescent intensity is in direct proportion to the ATP level which correlates positively to the number of living cells. The test plate was tested with the Envision (PE).
Cell media: RPMI-1640 medium, fetal calf serum (FCS), antibiotics (Penicillin-Streptomycin)
Assay reagent: Cell Viability Assay Kit CellTiter-Glo
(§2) Others: a 96-well plate, a 384-well plate, DMSO
(§3) Step 3.1 Culturing test cells
Karpas 299 cells were plated into a black 384-well plate, with 2500 cells in 45 μl cell suspension per well. The plate was placed in a carbon dioxide incubator overnight.
(§4) Step 3.2 Preparation of the compounds to be tested
Each compound to be tested was dissolved in DMSO at 10 mM as the stock solution, which was left in a nitrogen-gas tank for storage.
After dilution of 10 μL stock solution (10 mM) into 2.5 mM as a starting working solution, 10 concentrations of the working solutions from 5 μM to 0.25 nM were obtained in duplicate by further dilution in 3-fold series with ECHO.
Step 3.3 Mixing the compound with the test cells
To each well of a new 96-well plate were added 49 μl medium and 1 μl of the compounds to be tested at individual working concentrations (10 concentrations in total). After oscillation,
5 μl of mixture in each well of the 96-well plate was transferred into corresponding wells in the 384-well plate in the step 3.1. The 384-well plate was incubated in the carbon dioxide incubator for 3 days.
To each well of the 384-well plate was added […] reagent Promega CellTiter-Glo. and incubated at room temperature for 10 minutes to stabilize the luminescence signal. The results were read with the PerkinElmer Envision Multi-mode Plate Reader.

The target of the next test is ALK L1196M (Homo sapiens (Human), UniProt Q9UM73, L1196M). Kind of test: Inhibition of ALK L1196M kinase activity (Caliper mobility shift). The class given is biochemical. The procedure: (§5) Inhibition of Compound I Against ALK Kinase Activity
Chain of ALK L1196M (Q9UM73 19-1620 L1196M): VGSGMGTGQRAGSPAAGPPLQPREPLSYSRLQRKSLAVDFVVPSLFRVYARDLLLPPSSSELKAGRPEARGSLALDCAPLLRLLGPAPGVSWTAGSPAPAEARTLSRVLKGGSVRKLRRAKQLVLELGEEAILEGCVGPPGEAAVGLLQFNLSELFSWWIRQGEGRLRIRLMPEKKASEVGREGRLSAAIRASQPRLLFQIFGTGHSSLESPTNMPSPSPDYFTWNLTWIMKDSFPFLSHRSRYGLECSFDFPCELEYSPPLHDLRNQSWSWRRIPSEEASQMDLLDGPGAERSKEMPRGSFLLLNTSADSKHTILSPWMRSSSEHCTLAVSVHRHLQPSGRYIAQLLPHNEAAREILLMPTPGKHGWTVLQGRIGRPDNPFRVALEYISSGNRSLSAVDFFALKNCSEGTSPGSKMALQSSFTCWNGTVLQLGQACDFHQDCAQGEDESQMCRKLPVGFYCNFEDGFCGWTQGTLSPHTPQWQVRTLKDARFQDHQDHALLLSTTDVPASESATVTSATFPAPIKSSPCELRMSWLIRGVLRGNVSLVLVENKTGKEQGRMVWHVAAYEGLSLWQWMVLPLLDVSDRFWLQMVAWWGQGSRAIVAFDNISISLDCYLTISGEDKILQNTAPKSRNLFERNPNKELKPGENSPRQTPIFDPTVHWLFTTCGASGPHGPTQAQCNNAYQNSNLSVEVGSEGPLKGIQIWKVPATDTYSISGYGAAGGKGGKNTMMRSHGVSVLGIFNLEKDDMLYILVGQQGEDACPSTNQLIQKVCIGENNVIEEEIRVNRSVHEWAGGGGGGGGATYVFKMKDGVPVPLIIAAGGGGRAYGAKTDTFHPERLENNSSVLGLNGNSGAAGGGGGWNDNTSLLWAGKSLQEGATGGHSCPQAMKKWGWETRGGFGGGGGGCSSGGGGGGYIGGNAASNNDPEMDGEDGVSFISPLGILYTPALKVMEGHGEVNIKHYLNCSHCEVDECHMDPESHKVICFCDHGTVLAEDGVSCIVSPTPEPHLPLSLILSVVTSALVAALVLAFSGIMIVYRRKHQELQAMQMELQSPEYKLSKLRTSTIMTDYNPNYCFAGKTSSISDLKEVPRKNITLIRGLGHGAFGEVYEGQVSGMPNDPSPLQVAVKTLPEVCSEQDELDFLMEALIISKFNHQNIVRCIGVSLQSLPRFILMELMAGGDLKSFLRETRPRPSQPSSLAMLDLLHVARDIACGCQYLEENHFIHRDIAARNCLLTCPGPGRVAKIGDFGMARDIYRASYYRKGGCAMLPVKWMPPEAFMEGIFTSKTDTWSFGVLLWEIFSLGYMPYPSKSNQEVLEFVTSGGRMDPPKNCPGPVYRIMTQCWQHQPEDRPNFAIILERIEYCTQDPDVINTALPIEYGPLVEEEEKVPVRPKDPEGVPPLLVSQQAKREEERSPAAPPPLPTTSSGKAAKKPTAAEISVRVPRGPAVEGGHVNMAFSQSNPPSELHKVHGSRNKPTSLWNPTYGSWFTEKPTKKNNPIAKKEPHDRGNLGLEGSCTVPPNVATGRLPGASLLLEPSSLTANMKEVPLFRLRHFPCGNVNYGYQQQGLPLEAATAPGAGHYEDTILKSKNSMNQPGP
(§6) • I. Preparation of 1× kinase buffer and stop buffer
(§7) 1) 1× Kinase Buffer • 50 mM HEPES. pH 7.5 • 0.0015% Brij-35 • 10 mM MgCl2 • 2 mM DTT • 2) stop buffer • 100 mM HEPES, pH 7.5 • 0.015% Brij-35 • 0.2% Coating Reagent #3 • 50 mM EDTA
(§8) 2. Prepare a Compound Solution to be Tested • Step 2.1 Dilute the compound to 50× of the final desired highest inhibitor concentration in reaction by 100% DMSO. Transfer 100 μl of this compound dilution to a well in a 96-well plate. For example, if desired highest inhibitor concentration is 1 μM, then prepare 50 μM of compound DMSO solution in this step.
(§9) Step 2.2 Further dilute said compound dilution by 3-fold in series, thus obtain 10 concentrations.
(§10) Step 2.3 Add 100 μl of 100% DMSO to two empty wells for no compound control and no enzyme control in the same 96-well plate. Mark the plate as source plate.
(§11) Step 2.4 Prepare an intermediate plate
(§12) Transfer 10 μl of each compound from the source plate to a new 96-well plate as the intermediate plate.
(§13) Add 90 μl of 1× kinase buffer to each well of the intermediate plate. Mix the compounds in the intermediate plate for 10 min on a shaker.
(§14) Transfer 5 μl of each well from the 96-well intermediate plate to a 384-well plate in duplicate. For example, A1 of the 96-well plate is transferred to A1 and A2 of the 384-well plate. A2 of the 96-well plate is transferred to A3 and A4 of the 384-well plate, and so on.
(§15) 4.1 Prepare a 2.5× kinase solution
(§16) Add kinase in 1× kinase base buffer, thus obtain the 2.5× kinase solution.
(§17) 4.2 Prepare a 2.5× peptide solution
(§18) 4.3 In each well of the assay plate obtained in step 3, there was 5 μL of the compound in 10% DMSO.
(§19) 4.4 Transfer the 2.5× enzyme solution to the assay plate.
(§20) 4.5 Incubate at room temperature for 10 min.
(§21) 4.6 Transfer the 2.5× peptide solution to the assay plate.
(§22) 4.7 Kinase reaction and stop
(§23) Incubate at 28° C. for 20 min.
(§24) Add 25 μl of stop buffer to stop reaction.
(§25) Conversion rate of the kinase was read via the Caliper.
(§26) 6.1 Copy conversion data from Caliper program.
(§27) 6.2 Convert conversion values to inhibition values with the following formula: Percent inhibition=(max−conversion)/(max−min)*100
(§28) where “max” stands for DMSO control; and “min” stands for low control.
(§29) 6.3 Fit the data in XLfit excel add-in version 4.3.1 and obtain IC50 values according to the following formula: Y=Bottom+(Top−Bottom)/[…].

A further test deals with Ba/F3 EML4-ALK cells. The test can be described thus: Suppression of Ba/F3 EML4-ALK cell proliferation (CellTiter-Glo). In kind it is cell-based. To be noted: 3 days incubation.
Description: Cell media: RPMI-1640 medium, fetal calf serum (FCS), antibiotics (Penicillin-Streptomycin), IL-3, puromycin
Cell line: Ba/F3 EML4-ALK
Assay reagent: Cell Viability Assay Kit Celliter-Glo
as §2
as §1, with “in medium” for “in culture”, “a cell viability assay” for “a living-cell testing”, “was assayed by” for “was tested with”
as §3
Ba/F3 EML4-ALK cells were planted into a 384-well plate, with almost 300 cells per well. The plate was placed in a carbon dioxide incubator overnight.
as §4
10 concentrations of the working solutions were obtained in duplicate by dilution in 3-fold series with BRAVO.
Step 3.3 Mixing the compound to be tested with the test cells
The compounds to be tested at individual working concentrations were transferred into corresponding wells in the 384-well plate in the step 3.1, with 5 μM as the initial working concentration, and then the 384-well plate was incubated in the carbon dioxide incubator for 3 days.
To each well of the 384-well plate was added the reagent Promega CellTiter-Glo, and incubated at room temperature for 10 minutes to stabilize the luminescence signal. The results were read by the PerkinElmer Envision Multi-mode Plate Reader.
(In general: ATP-based viability assays read luminescence as a measure of living cells.)

Another test has as its target ALK (Homo sapiens (Human), UniProt Q9UM73). Kind of test: Inhibition of ALK kinase activity (Caliper mobility shift). In kind it is biochemical. The procedure: as §5, §6, §7, §8, §9, §10, §11, §12, §13, §14, §15, §16, §17, §18, §19, §20, §21, §22, §23, §24, §25, §26, §27, §28, §29

Like-named read-outs stand apart in the source and are kept apart here.

Chain of ALK (Q9UM73 19-1620): as the sequence (Q9UM73 19-1620 L1196M) above, with M1178L counted along it

Take `COc1cc(N2CCN(C(C)C)CC2)ccc1Nc1ncc(Cl)c(Nc2cccnc2S(=O)(=O)C(C)C)n1` [Compound I-23]: the IC50 with Karpas299 cells (Homo sapiens, KARPAS-299, 72 h) is less than 50 nM; on ALK L1196M it was 1 to 10 nM; in the test with Ba/F3 EML4-ALK cells (Ba/F3 EML4-ALK, 72 h), less than 20 nM; on ALK it was 1 to 10 nM.
Regarding `COc1cc(C2=CCN(C(C)C)CC2)c(C)cc1Nc1ncc(Cl)c(Nc2cccnc2S(=O)(=O)C(C)C)n1` [Compound I-80, 5-chloro-N^2-(4-(1-isopropyl-1,2,3,6-tetrahydropyridin-4-yl)-2-methoxy-5-methylphenyl)-N^4-(2-(isopropylsulfonyl)pyridin-3-yl) pyrimidine-2,4-diamine], the IC50 with Karpas299 cells (Homo sapiens, KARPAS-299, 72 h) is less than 50 nM; on ALK L1196M it was 1 to 10 nM; in the test with Ba/F3 EML4-ALK cells (Ba/F3 EML4-ALK, 72 h) it was 20 to 100 nM; at ALK, 1 to 10 nM.
For `CC(C)Oc1cc(N2CCC(N(C)C)CC2)ccc1Nc1ncc(Cl)c(Nc2ccsc2S(=O)(=O)C(C)C)n1` [Compound I-82, 5-chloro-N^2-(4-(4-(dimethylamino)piperidin-1-yl)-2-isopropoxyphenyl)-N^4-(2-(isopropylsulfonyl)thiophen-3-yl) pyrimidine-2,4-diamine], the IC50 is less than 50 nM in the test with Karpas299 cells (Homo sapiens, KARPAS-299, 72 h); less than 1 nM at ALK L1196M; 20 to 100 nM in the test on Ba/F3 EML4-ALK cells (Ba/F3 EML4-ALK, 72 h); less than 1 nM on ALK.
As to `COc1cc(C2=CCN(C)CC2)ccc1Nc1ncc(Cl)c(Nc2cccnc2S(=O)(=O)C(C)C)n1` [Compound I-84, 5-chloro-N^4-(2-(isopropylsulfonyl)pyridin-3-yl)-N^2-(2-methoxy-4-(1-methyl-1,2,3,6-tetrahydropyridin-4-yl)phenyl) pyrimidine-2,4-diamine], the IC50 in the test on Karpas299 cells (Homo sapiens, KARPAS-299, 72 h) is less than 50 nM; on ALK L1196M, 1 to 10 nM; in the test on Ba/F3 EML4-ALK cells (Ba/F3 EML4-ALK, 72 h) it was 20 to 100 nM; on ALK, 1 to 10 nM.
Consider `COc1cc(C2=CCN(C(C)C)CC2)ccc1Nc1ncc(Cl)c(Nc2cccnc2S(=O)(=O)C(C)C)n1` [Compound I-85, 5-chloro-N^2-(4-(1-isopropyl-1,2,3,6-tetrahydropyridin-4-yl)-2-methoxyphenyl)-N^4-(2-(isopropylsulfonyl)pyridin-3-yl) pyrimidine-2,4-diamine], for which the IC50 with Karpas299 cells (Homo sapiens, KARPAS-299, 72 h) was less than 50 nM; at ALK L1196M, 1 to 10 nM; with Ba/F3 EML4-ALK cells (Ba/F3 EML4-ALK, 72 h), 20 to 100 nM; at ALK it was 1 to 10 nM.
With `COc1cc(C2=CCN(C(C)C)CC2)ccc1Nc1ncc(Cl)c(Nc2ccsc2S(=O)(=O)C(C)C)n1` [Compound I-86, 5-chloro-N^2-(4-(1-isopropyl-1,2,3,6-tetrahydropyridin-4-yl)-2-methoxyphenyl)-N^4-(2-(isopropylsulfonyl)thiophen-3-yl) pyrimidine-2,4-diamine], the IC50 in the test on Karpas299 cells (Homo sapiens, KARPAS-299, 72 h) was less than 50 nM; at ALK L1196M, less than 1 nM; with Ba/F3 EML4-ALK cells (Ba/F3 EML4-ALK, 72 h), less than 20 nM; on ALK it was less than 1 nM.
With `COc1cc(N2CCN(C(C)C)CC2)c(C)cc1Nc1ncc(Cl)c(Nc2cccnc2S(=O)(=O)C(C)C)n1` [Compound I-88], the IC50 is 50 to 100 nM in the test with Karpas299 cells (Homo sapiens, KARPAS-299, 72 h); 1 to 10 nM at ALK L1196M; 20 to 100 nM in the test with Ba/F3 EML4-ALK cells (Ba/F3 EML4-ALK, 72 h); 1 to 10 nM on ALK.
In the case of `CC(C)Oc1cc(N2CCC(N(C)C)CC2)ccc1Nc1ncc(Cl)c(Nc2cccnc2S(=O)(=O)C(C)C)n1` [Compound I-91], the IC50 in the test on Karpas299 cells (Homo sapiens, KARPAS-299, 72 h) is 50 to 100 nM; at ALK L1196M, 1 to 10 nM; in the test with Ba/F3 EML4-ALK cells (Ba/F3 EML4-ALK, 72 h), less than 20 nM; at ALK, 1 to 10 nM.
As to `CCOc1cc(N2CCC(N(C)C)CC2)ccc1Nc1ncc(Cl)c(Nc2cccnc2S(=O)(=O)C(C)C)n1` [Compound I-92], the IC50 in the test on Karpas299 cells (Homo sapiens, KARPAS-299, 72 h) was 50 to 100 nM; at ALK L1196M, 1 to 10 nM; in the test on Ba/F3 EML4-ALK cells (Ba/F3 EML4-ALK, 72 h) it was less than 20 nM; on ALK it was 1 to 10 nM.
As for `COc1cc(N2CCC(N(C)C)CC2)c(C)cc1Nc1ncc(Cl)c(Nc2cccnc2S(=O)(=O)C(C)C)n1` [Compound I-98, 5-chloro-N^2-(4-(4-(dimethylamino)piperidin-1-yl)-2-methoxy-5-methylphenyl)-N^4-(2-(isopropylsulfonyl)pyridin-3-yl) pyrimidine-2,4-diamine], the IC50 in the test on Karpas299 cells (Homo sapiens, KARPAS-299, 72 h) was less than 50 nM; on ALK L1196M, less than 1 nM; in the test with Ba/F3 EML4-ALK cells (Ba/F3 EML4-ALK, 72 h), 20 to 100 nM; on ALK, less than 1 nM.
On to `CC(C)S(=O)(=O)c1ncccc1Nc1nc(Nc2ccc(N3CCC(N(C)C)CC3)cc2OC(F)F)ncc1Cl` [Compound I-100, 5-chloro-N^2-(2-(difluoromethoxy)-4-(4-(dimethylamino)piperidin-1-yl)phenyl)-N^4-(2-(isopropylsulfonyl)pyridin-3-yl) pyrimidine-2,4-diamine], for which the IC50 is less than 50 nM in the test with Karpas299 cells (Homo sapiens, KARPAS-299, 72 h); 1 to 10 nM on ALK L1196M; 20 to 100 nM with Ba/F3 EML4-ALK cells (Ba/F3 EML4-ALK, 72 h); 1 to 10 nM on ALK.
`Cc1cc(Nc2ncc(Cl)c(Nc3ccccc3S(=O)(=O)C(C)C)n2)c(OC(F)F)cc1N1CCC(N(C)C)CC1` [Compound I-102, 5-chloro-N^2-(2-(difluoromethoxy)-4-(4-(dimethylamino)piperidin-1-yl)-5-methylphenyl)-N^4-(2-(isopropylsulfonyl)phenyl) pyrimidine-2,4-diamine]: the IC50 was 50 to 100 nM with Karpas299 cells (Homo sapiens, KARPAS-299, 72 h); less than 1 nM at ALK L1196M; less than 20 nM in the test with Ba/F3 EML4-ALK cells (Ba/F3 EML4-ALK, 72 h); 1 to 10 nM on ALK.
For `COc1cc(CN2CCC(N(C)C)CC2)ccc1Nc1ncc(Cl)c(Nc2ccccc2S(=O)(=O)C(C)C)n1` [Compound I-109], in that order: 50 to 100 nM, 1 to 10 nM, less than 20 nM and 1 to 10 nM.
For `COc1cc(CN2CCC(N(C)C)CC2)ccc1Nc1ncc(Cl)c(Nc2ccccc2S(=O)(=O)C(C)C)n1` [Compound I-110], the IC50 was less than 50 nM in the test with Karpas299 cells, 1 to 10 nM at ALK L1196M, less than 20 nM in the test on Ba/F3 EML4-ALK cells and 1 to 10 nM at ALK.
